Source: US6420570B1, “Psoralen compounds” (priority 1993, dated 2002)
Structures can show the parent of a compound that is named as a salt.

Experiments:
[1] = system: R17; assay: R17 bacteriophage inactivation screen, varying compound concentration; type: cell-based
Method: The assay used to predict pathogen inactivation efficiency and to determine nucleic acid binding of the photoreactive binding compounds of the present invention was that in which a bacteriophage, R17, in solution with the desired substrate was irradiated. The ability of the phage to subsequently infect bacteria and inhibit their growth was measured. The bacteriophage was selected for its relatively accessible nucleic acid such that the culture growth inhibition would accurately reflect nucleic acid damage by the test compounds. The bacteriophage assay for nucleic acid binding to test compounds offers a safe and inexpensive procedure to identify compounds likely to display efficient pathogen inactivation. […] An aliquot (0.5 mL) was transferred to a 1.5 mL, snap-top polyethylene tube. An aliquot (0.004-0.040 mL) of the test compound stock solution prepared in water, ethanol or dimethylsulfoxide at 0.80-8.0 mM was added to the tube. Compounds were tested at concentrations between 4 μM and 320 μM. (AMT is commercially available from HRI, Inc., Concord, Calif.; 8-MOP is commercially available from Sigma, St. Louis, Mo.). The tubes were placed in a light device as described in EXAMPLE 1 and irradiated for between 1 and 10 minutes. […] To make the dilutions, a 0.100 mL aliquot of the irradiated solution of phage and test compound was added to the first dilution tube of 0.4 mL of media then 0.020 mL of this solution was added to the second tube of 0.5 mL medium (1:25). The second solution was then diluted serially (1:25) into the remaining tubes. […] After the top agar hardened, the plates were incubated at 37° C. overnight. The plaque forming units were then counted the following morning and the titer of the phage remaining after phototreatment was calculated based on the dilution factors. The following controls were run: the “phage only” in which phage was not treated with test compound and not irradiated (listed as “starting titer” in the tables below); the “UV only” in which the phage was irradiated in the absence of test compound; and the “dark” control in which the phage/test compound solution was not irradiated before it was diluted and plated.

[2] = system: TA1537; assay: Ames assay, dark mutagenicity, strain TA1537
Method: (§1) In this example the compounds of the present invention are tested for their dark mutagenicity using an Ames assay. The procedures used for the Salmonella mutagenicity test as described in detail by Maron and Ames were followed exactly. Maron, D. M. and B. N. Ames, Mutation Research 113:173 (1983). A brief description for each procedure is given here. The tester strains TA97a, TA98, TA100, TA102, TA1537 and TA1538 were obtained from Dr. Ames. TA97a, TA98, TA1537 and TA1538 are frameshift tester strains. TA100 and TA102 are base-substitution tester strains. Upon receipt each strain was cultured under a variety of conditions to confirm the genotypes specific to the strains.
(§2) The first tests done with the strains were to determine the range of spontaneous reversion for each of the strains. With each mutagenicity experiment the spontaneous reversion of the tester strains to histidine independence was measured and expressed as the number of spontaneous revertants per plate. This served as the background controls.
(§3) For all experiments, the pre-incubation procedure was used. In this procedure one vial of each tester strain was thawed and 20 μL of this culture was added to 6 mL of Oxoid Nutrient Broth #2. This solution was allowed to shake for 10 hours at 37° C. In the pre-incubation procedure, 0.1 mL of this overnight culture was added to each of the required number of sterile test tubes. To half of the tubes 0.5 mL of a 10% S-9 solution containing Aroclor 1254 induced rat liver extract (Molecular Toxicology Inc., Annapolis, MD), and MgCl2, KCl, glucose-6-phosphate, NADP, and sodium phosphate buffer (Sigma, St. Louis. Mo.) were added. To the other half of the tubes 0.5 mL of 0.2M sodium phospate buffer, pH 7.4, was used in place of the S-9 mixture (the -S9 samples) Finally 0.1 mL of the test solution containing either 0.0.1, 0.5, 1, 5, 10, 50, 100, 250, or 500 μg/mL of the test compound was added. The 0.7 mL mixture pre-incubated while shaking for 20 minutes at 37° C. After shaking, 2 mL of molten top agar supplemented with histidine and biotin were added to the 0.7 mL mixture and immediately poured onto a minimal glucose agar plate (volume of base agar was 20 ml.). The top agar was allowed 30 minutes to solidify and then the plates were inverted and incubated for 44 hours at 37° C. After incubation the number of revertant colonies on each plate were counted. […] (“n” represents the number of replicates performed for each data point.)
(§4) Maron and Ames (1983) describe the conflicting views with regard to the statistical treatment of data generated from the test.

[3] = system: DNA; conditions: photoactivated binding; NCI Monograph 66:21 (1984); cited from earlier work
[4] = system: Duck Hepatitis B Virus (DHBV); assay: Inactivation of Duck Hepatitis B Virus in platelet concentrate, PCR amplification read-out; conditions: 5 J/CM^2 UVA
Method: This example describes the protocol for inactivation of another virus, Duck Hepatitis B Virus (DHBV), using compounds of the present invention. DHBV in duck yolk was added to platelet concentrate (PC) to a final concentration of 2×10^7 particles per mL and mixed by gentle rocking for ≧15 min. […] Samples, including controls without added psoralen, were irradiated with 5 J/CM^2 UVA, with mixing at 1 J/cm^2 increments. After irradiation, leukocytes and platelets were separated from virus by centrifugation. […] Samples were extracted with phenolchloroform and chloroform, followed by ethanol precipitation. […] PCR amplicons were generated using primers pairs DCD03/DCD05 (127 bp), DCD03/DCD06 (327 bp) and DCD03/DCD07 (1072 bp). PCR was performed in a standard PCR buffer containing 0.2 mM each deoxyribonucleoside 5′-triphosphates (dATP, dGTP, dCTP, and dTTP), 0.5 […], and 0.5 units Taq polymerase per […]. 30 cycles of amplification were performed with the following thermal profile: 95° C. 30 sec, 60° C. 30 sec, 72° C. 1 min. The amplification was followed by a 7 min incubation at 72° C. to yield full length products. [[…]-^32P] dCTP was added at an amount of […] in order to detect and quantify the resulting products. Products were separated by electrophoresis on denaturing polyacrylamide slab gels and counted. The absence of signal in a given reaction was taken to indicate effective inactivation of DHBV.

[5] = system: TA1538; assay: Ames assay, dark mutagenicity, strain TA1538
Method: as §1, §2, §3, §4

[6] = system: cell-free virus (HIV); type: cell-based; conditions: Table 8, 1 minute irradiation, HIV starting titer approximately 5 logs
Method: Pathogen inactivation efficiency of several compounds of the present invention was evaluated by examining the ability of the compounds to inactivate cell-free virus (HIV). Inactivation of cell-free HIV was performed as follows.
As in the R17 assay, small aliquots of the compounds listed in TABLES 8 and 9, below, at the concentrations listed in the table, were added to stock HIV-1 to a total of 0.5 mL. The stock HIV (10^5-10^7 plaque forming units/mL) was in DMEM/15% FBS. […] Controls included HIV-1 stock only, HIV-1 plus UVA only, and HIV-1 plus the highest concentration of each psoralen tested, with no UVA. Post irradiation, all samples were stores frozen at −70° C. until assayed for infectivity by a microtiter plaque assay. Aliquots for measurement of residual HIV infectivity in the samples treated with a compound of the present invention were withdrawn and cultured.
Residual HIV infectivity was assayed using an MT-2 infectivity assay. […] The assay medium was 85% DMEM (with a high glucose concentration) containing 100 μg of streptomycin, 100 U of penicillin, 50 μg of gentamicin, and 1 μg of amphotericin B per mL, 15% FBS and 2 μg of Polybrene (Sigma Chemical Co., St. Louis, Mo.) per mL. Test and control samples from the inactivation procedure were diluted in 50% assay medium and 50% normal human pooled plasma. The samples were serially diluted directly in 96-well plates (Corning Glass Works, corning, N.Y.). The plates were mixed on an oscillatory shaker for 30 seconds and incubated at 37° C. in a 5% CO2 atmosphere for 1 to 18 hours. […] After an additional 1 hour of incubation at 37° C. in 5% CO2, 0.075 mL of assay medium containing 1.6% SeaPlaque agarose (FMC Bioproducts, Rockland, me.) and prewarmed to 38.5° C. was added to each well. The plates were kept at 37° C. for a few minutes until several plates had accumulated and then centrifuged in plate carriers at 600×g for 20 minutes in a centrifuge precooled to 10° C. In the centrifuge, cell monolayers formed prior to gelling of the agarose layer. The plates were incubated for 5 days at 37° C. in 5% CO2 and stained by the addition of 0.05 mL of 50 μg/mL propidium iodide (Sigma Chemical Co.) in phosphate-buffered saline (pH 7.4) to each well. After 24 to 48 hours, the red fluorescence-stained microplaques were visualized by placing the plates on an 8,000 μW/cm^2 304 nm UV light box (Fotodyne, Inc., New Berlin, Wis.). The plaques were counted at a magnification of ×20 to ×25 through a stereomicroscope. “n” represents the number of runs for which the data point is an average.

[7] = system: Salmonella tester strains; assay: Ames assay, dark mutagenicity, overall over tester strains
Method: as §1, §2, §3, §4

[8] = system: TA102; assay: Ames assay, dark mutagenicity, strain TA102
Method: as §1, §2
For all experiments, the pre-incubation procedure was used. In this procedure one vial of each tester strain was thawed and 20 μL of this culture was added to 6 mL of Oxoid Nutrient Broth #2. This solution was allowed to shake for 10 hours at 37° C. […] After incubation the number of revertant colonies on each plate were counted. […]

[9] = Table 6, 16 uM, 1 minute irradiation = 1.2 J/cm^2, starting titer approx. 7.1 logs
[10] = Table 6, 32 uM, 1 minute irradiation = 1.2 J/cm^2, starting titer approx. 7.1 logs

With Cc1oc2c(C)c3oc(=O)cc(C)c3cc2c1CNCCN (as salt: hydrochloride) [Compound 1, 4′-(4-amino-2-aza)butyl-4,5′,8-trimethylpsoralen dihydrochloride] the melting point was 320 to 322 °C (dec.).

In the case of Cc1oc2c(C)c3oc(=O)cc(C)c3cc2c1CNCCCN (as salt: hydrochloride) [Compound 5, 4′-(5-amino-2-aza)pentyl-4,5′,8-trimethylpsoralen dihydrochloride], the melting point is reported as 288 °C (dec.).

For Cc1oc2c(C)c3oc(=O)cc(C)c3cc2c1CN [AMT, 4′-Aminomethyl-4,5′,8-trimethylpsoralen, reference compound], the “R17 Log Kill 8 uM” value ([1]; Table 5, 8 uM, 1 minute irradiation, starting titer approx. 7.2 logs) was 2.7 log, the “R17 Log Kill 16 uM” value ([1]; Table 5, 16 uM, 1 minute irradiation, starting titer approx. 7.2 logs) was 4.6 log and the “R17 Log Kill 32 uM” value ([1]; Table 5, 32 uM, 1 minute irradiation, starting titer approx. 7.2 logs) was greater than 6.2 log. The “R17 log kill 16 uM” value [1, 9] was 4.5 log, the “R17 log kill 32 uM” value [1, 10] was 4.8 log and the “R17 log kill 16 uM” value ([1]; Table 7, 16 uM, 1 minute irradiation, starting titer approx. 7.1 logs) was greater than 6 log. The “R17 log kill 32 uM” value ([1]; Table 7, 32 uM, 1 minute irradiation, starting titer approx. 7.1 logs) was greater than 6 log, the “dose at which frameshift mutagenicity was shown” value ([2]; TA1537) was 5 μg/plate and the “revertant colonies per plate” value ([2]; TA1537 −S9, 100 μg/plate) was 2058. For the same compound, the “DNA base pairs per adduct (up to 1 AMT adduct per)” value [3] was 3.5 DNA base pairs, the “PCR amplification of the 1072 bp amplicon” value ([4]; platelet concentrate) was “a signal could be detected” and the “PCR amplification of the 1072 bp amplicon” value ([4]; 70 and 100 mM levels, platelet concentrate) was “inhibited PCR amplification”. The “dose at which frameshift mutagenicity was shown” value ([5]; TA1538) was 1 μg/plate, the “revertant colonies per plate” value ([5]; TA1538 +S9, 0.5 μg/plate) was 13 and the “revertant colonies per plate” value ([5]; TA1538 +S9, 1 μg/plate) was 37. The “revertant colonies per plate” value ([5]; TA1538 +S9, 5 μg/plate) was 177, the “revertant colonies per plate” value ([5]; TA1538 +S9, 10 μg/plate) was 255 and the “revertant colonies per plate” value ([5]; TA1538 −S9, 0.5 μg/plate) was 4. The “revertant colonies per plate” value ([5]; TA1538 −S9, 1 μg/plate) was 4, the “revertant colonies per plate” value ([5]; TA1538 −S9, 5 μg/plate) was 13 and the “HIV Log Kill 16 μM” value ([6]; 16 μM) was 1.4 log. For the same compound, the base-substitution mutagenicity ([7]; base-substitution tester strains TA100 and TA102) was “no significant base-substitution mutations” and the “concentration at which mutagenicity was displayed” value ([7]; comparison with Compound 6) was 5 μg/plate.

In the case of Cc1oc2c(C)c3oc(=O)cc(C)c3cc2c1COCCCN [Compound 4, 4′-(5-amino-2-oxa)pentyl-4,5′,8-trimethylpsoralen], the “R17 log kill 16 uM” value [1, 9] is reported as 2.3 log, the “R17 log kill 32 uM” value [1, 10] is reported as 4.3 log and the “R17 log kill 64 uM” value ([1]; Table 6, 64 uM, 1 minute irradiation = 1.2 J/cm^2, starting titer approx. 7.1 logs) is reported as greater than 6.1 log. The “HIV Log Kill 32 μM” value ([6]; 32 μM) was 2.2 log, the “HIV Log Kill 64 μM” value ([6]; 64 μM) was greater than 3.6 log and the “mutagenicity as defined by the Ames test” value ([7]; two-fold or greater increase in revertants above background and dose dependent response) was “no mutagenicity”.

For COc1c2occc2cc2ccc(=O)oc12 [Compound 8-MOP, 8-Methoxypsoralen], the “dose at which the only mutagenic response (weak base-substitution mutagen) was detected” value ([8]; TA102) was 500 μg/plate.

For Cc1oc2c(C)c3oc(=O)cc(C)c3cc2c1COCCN [Compound S-59], the “PCR of the smaller amplicons compared with AMT” value ([4]; 127 bp and 327 bp amplicons, same concentrations) was “inhibited PCR of the smaller amplicons better than did AMT” and the “PCR of the 1072 bp amplicon” value ([4]; all concentrations (35, 70, and 100 mM), platelet concentrate) was “complete inhibition of PCR”.

With OO [hydrogen peroxide] the “revertant colonies per plate, positive control” value ([8]; Salmonella typhimurium, 44 h, 100 μg/plt, pH 7.4) was 660.
